Experiments:
Assay type in all cases: in vivo
[1] = tested on: ORYZA SATIVA, L. TEBONNET; experiment: Rice tolerance to post-transplant applications under flooded paddy conditions, ORYSAT (Rice, Tebonnet); conditions: post-transplant rice, 3-4 weeks after treatment
Procedure, shortened: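 Rated on a visual 0–9 scale against untreated plants 3–4 weeks after application, rice (cv. Tebonnet) tolerance was tested by applying compounds (approx. 0.5–0.063 kg/ha, acetone/water 50/50) to flooded soil three days post-transplant, water kept 1.5–3 cm deep.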

SAGITTARIA PYGMAEA, L. = experiment: Preemergence weed control under flooded paddy conditions, SAGPY (Arrowhead (Pygmaea)); conditions: preemergence, 3-4 weeks after treatment
Procedure, shortened: (§1)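 Visual 0-9 rating against untreated control, covering stand, vigor, malformation, size and chlorosis, scored three to four weeks post-treatment in a greenhouse. Application was into 1.5-3 cm flood water over silt loam sown at 0.5 cm. The 50/50 v/v aqueous/acetone doses were about 0.5, 0.25, 0.125 and 0.063 kg/ha.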

[2] = tested on: GLYCINE MAX(L) MERR. CV. WILLIAMS; experiment: Postemergence herbicidal evaluation, GLXMAW (Soybean, Williams); conditions: crop, rated four to five weeks after treatment, averaged
Description: (§2) In the tests, seedling plants are grown in jiffy flats for about two weeks. The test compounds are dispersed in 50/50 acetone/water mixtures containing 0.5% TWEEN®20, a polyoxyethylene sorbitan monolaurate surfactant of Atlas Chemical Industries, in sufficient quantities to provide the equivalent of about 0.125 kg to 0.500 kg per hectare of active compound when applied to the plants through a spray nozzle operating at 40 psi for a predetermined time. After spraying, the plants are placed on greenhouse benches and are cared for in the usual manner, commensurate with conventional greenhouse practices. From four to five weeks after treatment, the seedling plants are examined and rated according to the rating system set forth below. Where more than one test is involved for a given compound, the data are averaged.
(§3) Plant species employed in these evaluations are reported by header abbreviation, common name and scientific name.
(§4) Results of herbicide evaluation are expressed on a rating scale (0-9). The scale is based upon a visual observation of plant stand, vigor, malformation, size, chlorosis and overall plant appearance as compared with a control.

[3] = tested on: CYPERUS SEROTINUS, ROTTB.; experiment: Preemergence weed control under flooded paddy conditions, CYPSE (Flatsedge); conditions: preemergence, 3-4 weeks after treatment
Procedure, shortened: as §1

GALIUM APARINE [4] = experiment: Preemergence herbicidal evaluation, GALAP (Galium); conditions: Rate 0.500 kg/ha, rated four to five weeks after treatment
From the text: as §4
(§5) The preemergence herbicidal activity of the test compounds of the present invention is exemplified by the following tests in which the seeds of a variety of monocotyledonous and dicotyledonous plants are separately mixed with potting soil and planted on top of approximately one inch of soil in separate pint cups. […] The treated cups are then placed on greenhouse benches, watered and cared for in accordance with conventional greenhouse procedures. From four to five weeks after treatment, the tests are terminated and each cup is examined and rated according to the rating system provided in Example 40.
(§6) The compounds evaluated are reported by compound number given in Example 40.

CASSIA OBTUSIFOLIA, L. = experiment: Preemergence herbicidal evaluation, CASOB (Sicklepod); conditions: Rate 0.500 kg/ha, rated four to five weeks after treatment
From the text: as §4, §5, §6

GALIUM APARINE [5] = experiment: Postemergence herbicidal evaluation, GALAP (Galium); conditions: rated four to five weeks after treatment, averaged
Procedure, shortened: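 In this postemergence greenhouse test, two-week-old Galium aparine seedlings grown in jiffy flats received a 40 psi spray of compound in acetone/water (50/50) with 0.5% TWEEN®20 surfactant. After four to five weeks, stand, vigor, malformation, size, chlorosis and overall appearance were compared with untreated controls on a 0-9 scale, averaging multiple tests.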

CYPERUS IRIA = experiment: Preemergence weed control under flooded paddy conditions, CYPIR (Rice Flatsedge); conditions: 0.500 kg/ha, preemergence, 3-4 weeks after treatment
Procedure, shortened: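 This preemergence test mimicked flooded paddy conditions: rice flatsedge propagules were sown in the upper 0.5 cm of silt loam in undrained 32 oz. containers (10.5 cm diameter), with water held 1.5 to 3 cm over the soil. After normal greenhouse care, plants were scored 0-9 for stand, vigor, malformation, size, chlorosis and appearance relative to controls.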

[…], PRESL. = Preemergence weed control under flooded paddy conditions, MOOVA (Monochoria); conditions: 0.500 kg/ha, preemergence, 3-4 weeks after treatment
Procedure, shortened: as §1

[6] = tested on: ECHINOCHLOA ORYZOIDES (ARD.)FRITSCH; experiment: Preemergence weed control under flooded paddy conditions, ECHORC (Watergrass (Calif.)); conditions: 0.500 kg/ha, preemergence, 3-4 weeks after treatment
Procedure, shortened: as §1

[7] = tested on: SETARIA VIRIDIS, (L) BEAU; experiment: Postemergence herbicidal evaluation, SETVI (Foxtail, Green); conditions: rated four to five weeks after treatment, averaged
Procedure, shortened: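 Application to seedlings around two weeks old: test compound in 50/50 acetone/water, 0.5% TWEEN 20, sprayed at 40 psi for roughly 0.125–0.500 kg/ha. Evaluation: 0–9 visual scale after 4–5 weeks, replicates averaged.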

[8] = tested on: ECHINOCHLOA CRUS-GALLI, (L) BEAU; experiment: Postemergence herbicidal evaluation, ECHCG (Barnyardgrass); conditions: rated four to five weeks after treatment, averaged
Description: as §2, §3, §4

Structure (SMILES) | Herbicidal effect rating, ORYSAT ([1]; 0.063 kg/ha) | Herbicidal effect rating, ORYSAT ([1]; 0.125 kg/ha) | Herbicidal effect rating, ORYSAT ([1]; 0.250 kg/ha) | Herbicidal effect rating, ORYSAT ([1]; 0.500 kg/ha) | Herbicidal effect rating, SAGPY (SAGITTARIA PYGMAEA, L.; 0.063 kg/ha) | Herbicidal effect rating, SAGPY (SAGITTARIA PYGMAEA, L.; 0.125 kg/ha) | Herbicidal effect rating, SAGPY (SAGITTARIA PYGMAEA, L.; 0.250 kg/ha) | Herbicidal effect rating, SAGPY (SAGITTARIA PYGMAEA, L.; 0.500 kg/ha) | Herbicidal effect rating, CYPSE ([3]; 0.063 kg/ha) | Herbicidal effect rating, CYPSE ([3]; 0.125 kg/ha) | Herbicidal effect rating, CYPSE ([3]; 0.250 kg/ha) | Herbicidal effect rating, CYPSE ([3]; 0.500 kg/ha) | GALAP herbicidal rating (GALIUM APARINE [4]) | CASOB herbicidal rating (CASSIA OBTUSIFOLIA, L.) | other results
COC(=O)Cn1c(=O)n(C)c(=O)n(-c2cc(Oc3ccc(F)cc3C(F)(F)F)ccc2[N+](=O)[O-])c1=O [Compound 21] | 0.0 | 0.0 | 0.0 | 0.5 | 0.0 | 0.0 | 0.0 | 0.0 | 0.0 | 0.0 | 0.0 | 0.0 | 9.0 | 7.0 | GLXMAW, herbicide rating (0-9) ([2]; Rate 0.125 kg/ha): 4.0; GLXMAW, herbicide rating (0-9) ([2]; Rate 0.250 kg/ha): 4.0; GLXMAW, herbicide rating (0-9) ([2]; Rate 0.500 kg/ha): 4.0
COC(=O)Cn1c(=O)n(C)c(=O)n(-c2cc(Oc3ccc(F)c(F)c3F)ccc2[N+](=O)[O-])c1=O [Compound 27, Methyl tetrahydro-3-methyl-5-[2-nitro-5-(2,3,4-trifluorophenoxy)phenyl]-2,4,6-trioxo-s-triazine-1(2H)-acetate] | 0.0 | 1.0 | 2.0 | 1.5 | 0.0 | 0.0 | 0.0 | 0.0 | 0.0 | 0.0 | 0.0 | 0.0 | 8.0 | 0.0 | –
COC(=O)Cn1c(=O)n(C)c(=O)n(-c2cc(Oc3ccc([N+](=O)[O-])cc3F)ccc2[N+](=O)[O-])c1=O [Compound 24, Methyl 3-[5-(2-fluoro-4-nitrophenoxy)-2-nitrophenyl]tetrahydro-5-methyl-2,4,6-trioxo-s-triazine-1(2H)-acetate] | – | – | – | 0.0 | – | – | – | 0.0 | – | – | – | 0.0 | 0.0 | 0.0 | GALAP, herbicide rating (0-9) (GALIUM APARINE [5]; Rate 0.125 kg/ha): 2.0; GALAP, herbicide rating (0-9) (GALIUM APARINE [5]; Rate 0.250 kg/ha): 2.0; GALAP, herbicide rating (0-9) (GALIUM APARINE [5]; Rate 0.500 kg/ha): 2.0; Herbicidal effect rating, CYPIR (CYPERUS IRIA): 0.0; Herbicidal effect rating, MOOVA ([…], PRESL.): 0.0; Herbicidal effect rating, ECHORC [6]: 0.0; SETVI, herbicide rating (0-9) ([7]; Rate 0.125 kg/ha): 0.0; SETVI, herbicide rating (0-9) ([7]; Rate 0.250 kg/ha): 0.0; SETVI, herbicide rating (0-9) ([7]; Rate 0.500 kg/ha): 0.0; ECHCG, herbicide rating (0-9) ([8]; Rate 0.125 kg/ha): 0.0; ECHCG, herbicide rating (0-9) ([8]; Rate 0.250 kg/ha): 0.0; ECHCG, herbicide rating (0-9) ([8]; Rate 0.500 kg/ha): 0.0
